Reference: patent publication US11771737B2, “Treating or preventing adverse liver conditions” (priority 2017, dated 2023)

Tests used:
A20 tumor cells = experiment: Tail vein A20 tumor cell injection, liver metastasis; format: in vivo, BALB/c mice; conditions: A20 tumor-bearing antibiotic (vancomycin)-administered mice, ω-MCA feeding
Source text: Liver metastases were counted three weeks after injection. Cumulative data are shown. n=8, p<0.05, Student's t-test.
FIG. 7B is a dot plot showing liver weight of liver sections in mice that received tail vein injection of A20 tumor cells. n=4, p<0.05, Student's t-test.
(§1) B16-F1 and A20 cells were purchased from ATCC (Manassas, Va., USA). EL4 cells were used as described (Ma et al., J. Leukoc. Biol., 92: 1199-1206 (2012), incorporated by reference herein). 1×10^6 EL4 tumor cells were given by subcutaneous (s.c.) or tail vein injection, 3×10^5 B16-F1 tumor cells were given by intrasplenic injection as described before (Eggert et al., Cancer Cell, 30: 533-547 (2016), incorporated by reference herein), and 1×10^6 A20 tumor cells were given by tail vein injection.
Mice were kept on ABX cocktail and fresh ABX was replaced every other day. Mice were fed with bile acids by oral gavage 48, 24 and 16 hrs prior to sacrifice. For A20 tumor bearing mice, ω-MCA were given 3 times/week. ω-MCA and CDCA were dissolved in corn oil and given at the dose of 6 mg/15 g body weight.
A20 tumor cells were i.v. injected into vancomycin-(Vanco) or H2O-administered BALB/c mice. ω-MCA (5 mg/mouse) was given by oral gavage three times/week. aCD4 antibody (GK1.5) was given i.p. at the dose of 500 μg/mouse weekly to deplete […] cells. FIGS. 30A and 30B show the results after 3 weeks.

EL4 tumor cells = experiment: Tail vein EL4 tumor cell injection, liver tumors in wild-type, CXCR6 and CD1d knockout mice; format: in vivo; conditions: ABX-administered CXCR6−/− mice
Source text: Measurements were taken 3 weeks after injection. Cumulative data are shown. n=10 for Wt-H2O, 7 for Wt-ABX, 4 for CXCR6^−/−-H2O, 5 for CXCR6^−/−-ABX, 5 for CD1d^−/−-H2O, 4 for CD1d^−/−-ABX. p<0.05, two-way ANOVA.
as §1
NKT cells are known to have anti-tumor function and can directly kill CD1d expressing tumors. All three tested tumor models (B16, EL4 and A20) expressed […] at different levels (FIG. 22). To investigate the role of NKT cells in this setting, CD1d knockout and CXCR6 knockout mice were used. CD1d knockout mice completely lack NKT cells, while CXCR6 knockout mice have a selective NKT deficiency in the liver. Loss of hepatic NKT cells in these mice was confirmed (FIG. 23). […]
EL4 tumor cells were injected into ABX-pre-administered CXCR6^−/− mice. ω-MCA was given as described above. Liver surface tumors were counted three weeks after tumor injection.

CXCL16 = CXCL16 mRNA in primary murine LSECs administered bile acids; format: cell-based, mice; conditions: primary murine LSECs in vitro, 24 hours
Source text: FIG. 28E is a dot plot showing CXCL16 mRNA levels of isolated LSECs administered different bile acids, in accordance with embodiments of the invention. n=5, p<0.05, one-way ANOVA.
FIG. 28F is a dot plot showing CXCL16 mRNA levels of isolated LSECs administered a combination of T-b-MCA with T-w-MCA or ω-MCA. n=5, p<0.05, one-way ANOVA.
Primary mice liver sinusoidal endothelia cells were isolated as previously described (Limmer et al., Nat. Med., 6: 1348-1354 (2000), incorporated by reference herein). Briefly, mice were CO2 euthanized, and then the portal vein was cannulated, and the liver was perfused with 0.05% collagenase in Ca^2+ deprived medium. Liver cells were dissociated, and parenchymal cells were killed by incubation in 0.04% collagenase in Gey's balanced salt solution at 37° C. for 15 minutes. Then density gradient centrifugation was performed using Nycodenz solution at the final solution of 1.089 g/cm^3. Liver sinusoidal endothelial cells (LSEC) were isolated using anti-LSEC microbeads (Miltenyi, Bergisch Gladbach, Germany) according to the manufacturer's instructions. LSECs or the human SK-HEP1 cell line (ATCC, HTB-52) were administered different bile acids for 24 hours. Gene expression was analyzed by real-time PCR. […]

hepatic NKT cells = experiment: In vivo bile acids feeding, hepatic NKT cell levels; conditions: ABX-administered mice, oral gavage 6 mg/15 g body weight at 48, 24 and 16 hrs

C[C@H](CCC(=O)O)[C@H]1CC[C@H]2[C@@H]3[C@@H](O)[C@H](O)[C@@H]4C[C@H](O)CC[C@]4(C)[C@H]3CC[C@]12C [ω-MCA, ω-muricholic acid]
liver tumor growth (A20 tumor cells): reversed the inhibition of liver tumor growth | liver tumor development (EL4 tumor cells): failed to affect | cxcl16 mRNA expression (CXCL16): decreased | hepatic NKT accumulation (hepatic NKT cells): effectively reversed hepatic NKT accumulation
